Results as given in patent publication US9132086B2, “Compositions for and methods of controlling olfactory responses to odorants” (Auburn University, priority 2006, dated 2015).

Legend:
[1] = system: olfactory receptor neurons; assay: Whole-cell patch-clamp recording of single olfactory neurons; format: cell-based, rat; details: FIG. 7
Excerpt: FIG. 6 illustrates electrophysiological recordings from a rat olfactory epithelium and a single olfactory neuron where the stimulus was a 0.5-s pulse of air or an odorant mixture. The odorant concentration was constant for all traces. […] Vapor of odorants were collected above the odorant solutions (in water) of concentrations shown. […] The stimulus was a 0.5 second pulse of odorant/zinc particle mixture. Downward direction indicates inward current.
FIG. 7 illustrates results from EGTA experiments and Zn^+2 ions experiments. […] It is widely known that EGTA binds multivalent metals. When Zn metal nanoparticles are bound by EGTA, the number of particles participating in olfactory signal transduction is reduced, and the odorant response is decreased. […] When the patch electrode is filled with a solution containing 500 pM EGTA, the odorant-evoked current changes markedly. Few minutes after beginning the perfusion, a progressive […] in the amplitude of the odorant triggered inward currents is noted.

rat olfactory epithelium = assay: EOG recording of rat olfactory epithelium, odorant puffs; format: cell-based; details: FIG. 7 chart 720; external perfusion of ZnCl2 solutions, same range of concentrations as nanoparticles (10^−9-10^−15 M)
Excerpt: The averaged activity of the receptor neuron to an odor can be measured by an electroolfactogram (EOG). In this process, fragments of olfactory epithelaia, either cultured or dissected from natural sources (e.g., mice and dogs), are placed in an EOG recording chamber with a buffer solution. The epithelial cilia are exposed. Electrodes are connected to the tissues through a patch-clamp amplifier to detect electrical activity of the olfactory epithelia. In general air puff or plums of an odorant mixture are applied over the olfactory epithelia through a small pipet or capillary, before and after being treated with the metal composition, described in detail below. The amplitude of the electrical signal to the amount of the odorant is plotted over time after the electrical signal is amplified and filtered.
FIG. 3C is a graph 370 showing amplitude plots 371, 373, 375 and 377 of Electroolfactogram recordings. In this case rat olfactory tissue was placed in an EOG recording chamber with a buffer solution and connected to electrodes through an amplifier. Air puffs or plumes of an odorant mixture are applied over the rat olfactory tissue and the electrical response was measured and the normalized peak amplitudes were plotted over time over time.
FIG. 5 illustrates EOG traces from rat olfactory epithelium. Responses were induced by air odorants and a mixture of odorants and zinc metal particles. […]

Row | Compound | effect on odorant response measured by patch-clamp ([1]; 500 pM perfused inside olfactory neurons) | dose dependence of the effect on odorant response ([1]; perfused inside olfactory neurons) | odorant response by olfactory receptor neurons (rat olfactory epithelium)
1 | O=C(O)CN(CCOCCOCCN(CC(=O)O)CC(=O)O)CC(=O)O [EGTA, ethylene glycol tetraacetic acid] | clearly inhibit odorant response | dose dependent | –
2 | [Zn+2] [Zn^+2 ions, ZnCl2] | – | – | reduced
